Assay [1] has as its target Mu-type opioid receptor (Cavia porcellus, UniProt P97266). In words: Tested for agonist activity against mu opioid receptor in guinea pig ileum. The assay is classed as functional, tissue-based.
In assay [2] the target is Mu-type opioid receptor (Rattus norvegicus, UniProt P33535). Put plainly: Evaluated for inhibition of [3H]DAMGO binding from mu receptor in rat brain membranes. The assay is classed as cell membranes.
Assay [3] has as its target T1, Delta-type opioid receptor (Mus musculus, UniProt P32300). Put plainly: Tested for inhibition of binding of [3H]DADLE to mouse brain membranes depleted of mu binding sites by pretreatment with irreversible ligand BIT for delta opioid receptor. Also on record: species or system Membrane.
For assay [4], the target named is T1, Delta-type opioid receptor. Put plainly: Tested for agonist activity against delta opioid receptor mouse vas deferens. It is filed as functional, tissue-based.

The structures appear in SMILES notation. Where a SMILES comes first, the peptide text is derived from it. [ ]: non-standard residue; d: D form. The star is where a group is joined. Tyr(Nα,Nα-allyl2) = C=CCN(CC=C)[C@@H](Cc1ccc(O)cc1)C(=O)*; Aib = CC(C)(N)C(=O)O

What is called IC50 is the concentration at which inhibition is half-maximal.

T1 sequence (P32300 whole entry): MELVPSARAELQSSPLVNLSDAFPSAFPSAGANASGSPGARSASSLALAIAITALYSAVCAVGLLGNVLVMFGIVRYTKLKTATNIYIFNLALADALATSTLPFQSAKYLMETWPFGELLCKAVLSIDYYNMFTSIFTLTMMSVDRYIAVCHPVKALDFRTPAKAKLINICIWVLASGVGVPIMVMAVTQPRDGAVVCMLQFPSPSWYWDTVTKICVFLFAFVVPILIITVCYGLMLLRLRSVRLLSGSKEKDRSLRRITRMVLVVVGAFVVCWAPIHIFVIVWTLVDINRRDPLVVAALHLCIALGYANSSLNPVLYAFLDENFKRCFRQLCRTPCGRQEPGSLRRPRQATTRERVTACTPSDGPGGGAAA
Chain of Mu-type opioid receptor (Cavia porcellus, UniProt P97266) (P97266 whole entry): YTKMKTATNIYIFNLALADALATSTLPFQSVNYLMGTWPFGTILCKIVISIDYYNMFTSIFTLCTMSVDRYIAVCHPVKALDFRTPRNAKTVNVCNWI
Chain of Mu-type opioid receptor (Rattus norvegicus, UniProt P33535) (P33535 whole entry): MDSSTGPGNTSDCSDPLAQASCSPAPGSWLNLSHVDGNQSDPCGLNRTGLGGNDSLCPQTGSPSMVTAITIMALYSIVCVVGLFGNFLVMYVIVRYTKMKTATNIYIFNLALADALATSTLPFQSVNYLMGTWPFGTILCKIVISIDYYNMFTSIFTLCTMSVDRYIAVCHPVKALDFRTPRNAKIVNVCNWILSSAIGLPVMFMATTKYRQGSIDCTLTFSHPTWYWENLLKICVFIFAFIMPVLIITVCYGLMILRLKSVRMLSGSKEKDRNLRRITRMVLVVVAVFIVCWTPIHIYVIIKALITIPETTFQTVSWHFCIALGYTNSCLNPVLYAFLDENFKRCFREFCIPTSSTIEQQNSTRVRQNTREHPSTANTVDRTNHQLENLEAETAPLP

With `C=CCN1C[C@H](C)N([C@@H](c2ccc(C(=O)N(CC)CC)cc2)c2cccc(OC)c2)C[C@H]1C`, the 50% inhibitory concentration (IC50) stood at 5460 nM on Mu-type opioid receptor [1] and 2470 nM on Mu-type opioid receptor [2].
In the case of `C=CCN1C[C@@H](C)N([C@H](c2ccc(C(=O)N(CC)CC)cc2)c2cccc(O)c2)C[C@@H]1C`, the half-maximal inhibitory concentration (IC50) in assay [3] came to 9.58 nM.
Still for that read-out and setting: next, `C=CCN1C[C@@H](C)N([C@@H](c2ccc(C(=O)N(CC)CC)cc2)c2cccc(O)c2)C[C@@H]1C`: 0.49 nM.
On to `C=CCN1CC(C)N(C(c2ccc(C(=O)N(CC)CC)cc2)c2cccc(O)c2)CC1C` (racemic), for which the results for the concentration for half-maximal inhibition (IC50) (at Mu-type opioid receptor [1]; in assay [4]; in assay [3]) were 143 nM, 0.2 nM and 0.92 nM, respectively.
Take `C=CCN1C[C@@H](C)N(C(c2ccc(C(=O)N(CC)CC)cc2)c2cccc(OC)c2)C[C@@H]1C` (single isomer, unassigned): the 50% inhibitory concentration (IC50) on Mu-type opioid receptor [1] came out at 1520 nM; on Mu-type opioid receptor [2], 9140 nM.
For the compound `C=CCN1CC(C)N([C@H](c2ccc(C(=O)N(CC)CC)cc2)c2cccc(OC)c2)CC1C` (single isomer, unassigned) [SNC-80], the half-inhibitory concentration (IC50) at Mu-type opioid receptor [2] is 9370 nM.
On to `C=CCN1C[C@H](C)N(C(c2ccc(C(=O)N(CC)CC)cc2)c2cccc(O)c2)C[C@H]1C` (single isomer, unassigned; (+)-1), for which the IC50 in assay [3] turned out to be 0.31 nM.
On the same count and under the same terms, to `C=CCN1C[C@H](C)N(C(c2ccc(C(=O)N(CC)CC)cc2)c2cccc(O)c2)C[C@H]1C` (single isomer, unassigned; (+)-10) belongs 5.96 nM.
Compound `C=CCN(CC=C)[C@@H](Cc1ccc(O)cc1)C(=O)NC(C)(C)C(=O)NC(C)(C)C(=O)N[C@@H](Cc1ccccc1)C(=O)N[C@@H](CC(C)C)C(=O)O.C=CCN1C[C@H](C)N([C@@H](c2ccc(C(=O)N(CC)CC)cc2)c2cccc(OC)c2)C[C@H]1C` ({Tyr(Nα,Nα-allyl2)}-[Aib][Aib]FL-OH) displayed a half-maximal inhibitory concentration (IC50) in assay [4] of 3250 nM.
Turning to `CC(C)[C@H](NC(=O)[C@H](CCC(=O)O)NC(=O)[C@H](Cc1ccccc1)NC(=O)[C@@H](C)NC(=O)[C@@H](N)Cc1ccc(O)cc1)C(=O)N[C@H](C(=O)NCC(=O)O)C(C)C` [DELTORPHIN], the IC50 at Mu-type opioid receptor [1] was determined as 15000 nM.
Regarding `C=CCN1C[C@H](C)N([C@H](c2ccc(C(=O)N(CC)CC)cc2)c2cccc(OC)c2)C[C@H]1C` [SNC-80], the concentration for half-maximal inhibition (IC50) on Mu-type opioid receptor [2] amounted to 5710 nM.

Source of the values: ChEMBL document CHEMBL1127803 (J Med Chem, 1994).
